Where a SMILES comes first, the peptide text is derived from it. Bridges are numbered along the chain shown (N, C = ends). Where no end group is shown, it is not given here.
Columns and labels:
[1] = normal mice, continuous intravenous administration, increased bone length; cited from earlier work
[2] = Estimated concentration in plasma during repeated subcutaneous administration with two vehicles (Example 3); format: in vivo, rat
[3] = Blood pressure lowering effect, 24-hour continuous intravenous administration, telemetry (Example 4); format: in vivo, cynomolgus monkey; parameters: Systolic blood pressure fluctuation range (maximum value %): unit not given here; conditions: for Systolic blood pressure fluctuation range (maximum value %): maximum value during administration period
Experimental: (§1) The CNP derivative (A) was continuously intravenously administered at doses of 0.015 to 0.1 mg/kg/day at a constant rate to telemetry transmitter-implanted cynomolgus monkeys (two males and two females), and studied for its influence on blood pressure (systolic, diastolic, and average blood pressures), heart rate, and an electrocardiographic parameter.

[4] = Concentration in plasma during 24-hour continuous intravenous administration (Example 4); format: in vivo, cynomolgus monkey; conditions: 0.1 mg/kg/day continuous i.v. 24 h, immediately before completion of administration
Experimental: as §1
[Table 3: Systolic blood pressure fluctuation range (maximum value during administration period) when CNP derivative (A) was continuously intravenously administered at constant rate for 24 hours to cynomolgus monkey, and concentration of CNP derivative (A) in plasma immediately before completion of administration

[5] = Body length after 7-day repeated or continuous subcutaneous administration (Example 2); format: in vivo, rat; conditions: for Body length (from mouth to end of tail): male SD rat
Experimental: A dosing solution of the CNP derivative (A) or (B) was repeatedly subcutaneously administered at doses of 0.005, 0.015, 0.05, 0.15 and 0.5 mg/kg/day once a day for 7 days to 7-week-old male Crl:CD (SD) rats, or charged in an osmotic pump (MINI-OSMOTIC PUMP Model 2002, manufactured by DURECT Corp., flow rate: 0.5 μL/hr, for 14-day use), implanted in the backs of rats, and continuously subcutaneously administered at these doses for 7 days. Their body lengths (from the mouth to the end of the tail) were measured before the start of administration and 8 days after the start of administration.

NPR-B = conditions: Furuya et al. 1992; cited from earlier work
Chain of NPR-B (P20594 23-1047, species assumed): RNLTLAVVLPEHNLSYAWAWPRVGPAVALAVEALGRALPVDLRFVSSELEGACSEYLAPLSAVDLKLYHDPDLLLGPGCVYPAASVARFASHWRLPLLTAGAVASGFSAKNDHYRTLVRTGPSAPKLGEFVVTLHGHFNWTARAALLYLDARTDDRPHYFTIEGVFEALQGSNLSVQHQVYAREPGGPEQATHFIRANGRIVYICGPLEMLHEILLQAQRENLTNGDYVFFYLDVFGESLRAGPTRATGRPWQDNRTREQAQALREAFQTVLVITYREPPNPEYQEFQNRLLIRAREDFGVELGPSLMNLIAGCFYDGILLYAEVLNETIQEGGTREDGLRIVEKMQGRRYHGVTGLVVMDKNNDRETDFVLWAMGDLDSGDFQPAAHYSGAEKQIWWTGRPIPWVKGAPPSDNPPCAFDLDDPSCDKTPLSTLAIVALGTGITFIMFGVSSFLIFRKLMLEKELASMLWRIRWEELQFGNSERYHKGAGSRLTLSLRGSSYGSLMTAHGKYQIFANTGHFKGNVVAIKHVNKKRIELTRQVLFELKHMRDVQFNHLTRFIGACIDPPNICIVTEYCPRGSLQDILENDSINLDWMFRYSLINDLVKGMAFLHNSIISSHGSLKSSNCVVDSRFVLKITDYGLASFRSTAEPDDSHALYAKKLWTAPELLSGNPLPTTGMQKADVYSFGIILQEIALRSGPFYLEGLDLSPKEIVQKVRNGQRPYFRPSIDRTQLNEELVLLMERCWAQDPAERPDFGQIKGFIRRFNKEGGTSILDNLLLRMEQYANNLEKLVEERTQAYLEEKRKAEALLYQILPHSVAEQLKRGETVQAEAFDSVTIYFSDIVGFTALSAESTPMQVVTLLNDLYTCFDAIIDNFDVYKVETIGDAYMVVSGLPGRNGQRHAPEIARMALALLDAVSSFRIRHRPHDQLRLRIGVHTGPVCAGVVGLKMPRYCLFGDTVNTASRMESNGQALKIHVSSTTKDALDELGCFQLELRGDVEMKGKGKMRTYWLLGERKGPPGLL

CNP-22
effective concentration in plasma [1]: 29.3 ng/mL

CC[C@H](C)[C@@H]1NC(=O)[C@H](CCCNC(=N)N)NC(=O)[C@H](CC(=O)O)NC(=O)[C@H](CC(C)C)NC(=O)[C@H](CCCCN)NC(=O)[C@H](CC(C)C)NC(=O)CNC(=O)[C@H](Cc2ccccc2)NC(=O)[C@@H](NC(=O)CNC(=O)[C@H](CCCCN)NC(=O)[C@H](CO)NC(=O)[C@H](CC(C)C)NC(=O)CN)CSSC[C@@H](C(=O)N[C@H](C(=O)N[C@@H](CCC(N)=O)C(=O)N[C@@H](CCC(N)=O)C(=O)N[C@@H](CCCNC(=N)N)C(=O)N[C@@H](CCCCN)C(=O)N[C@@H](CC(=O)O)C(=O)N[C@@H](CO)C(=O)N[C@@H](CCCCN)C(=O)N[C@@H](CCCCN)C(=O)N2CCC[C@H]2C(=O)N2CCC[C@H]2C(=O)N[C@@H](C)C(=O)N[C@@H](CCCCN)C(=O)N[C@@H](CC(C)C)C(=O)N[C@@H](CCC(N)=O)C(=O)N2CCC[C@H]2C(=O)N[C@@H](CCCNC(=N)N)C(=O)O)C(C)C)NC(=O)CNC(=O)[C@H](CC(C)C)NC(=O)CNC(=O)[C@H](CO)NC(=O)[C@H](CCSC)NC(=O)[C@H](CO)NC(=O)CNC1=O [CNP derivative (A)] (H-GLSKGCFGLKLDRIGSMSGLGCVQQRKDSKKPPAKLQPR-OH; disulfide 6-22; N-terminus and C-terminus assumed)
estimated concentration in plasma ([2]; vehicle 1, 0.5 mg/kg s.c., 9 hours after administration): ≤ 0.1 ng/mL | estimated concentration in plasma ([2]; vehicle 1, 0.5 mg/kg s.c., immediately after administration): ≥ 200 ng/mL | peak concentration in plasma (estimated) ([2]; vehicle 2, 0.25 mg/kg s.c.): about 40 ng/mL | estimated concentration in plasma ([2]; vehicle 2, 0.25 mg/kg s.c., 12 hours after administration): ≥ 0.1 ng/mL | Systolic blood pressure fluctuation range (maximum value %) ([3]; 0.015 mg/kg/day continuous i.v. 24 h): −6.8 | systolic blood pressure decrease ([3]; 0.05 mg/kg continuous i.v.): −11.0 mmHg | Systolic blood pressure fluctuation range (maximum value %) ([3]; 0.05 mg/kg/day continuous i.v. 24 h): −11.0 | systolic blood pressure decrease ([3]; 0.1 mg/kg continuous i.v.): −20.5 mmHg | Systolic blood pressure fluctuation range (maximum value %) ([3]; 0.1 mg/kg/day continuous i.v. 24 h): −20.5 | reflex tachycardia ([3]; concentration in plasma up to 9.8 ng/mL at its maximum): no symptom indicating reflex tachycardia was observed | concentration in plasma up to which reflex tachycardia is less likely to occur ([3]; elevated by continuous change): about 10 ng/mL | blood pressure lowering effect (systolic and average blood pressures), average of differences from pre-administration values ([3]; observed from 0.05 mg/kg): exceeding 10 mmHg | concentration in plasma at which the risk of developing decreased blood pressure is drastically reduced ([3]; waking cynomolgus monkeys): ≤ 4 ng/mL | Concentration in plasma [4]: 9.8 ng/mL

CNP derivative (B): derivative consisting of the amino acid sequence Pro-Gly-CNP-37 (SEQ ID NO: 4), from WO2009/067639, under clinical development for achondroplasia (PGQEHPNARKYKGANKKGLSKGCFGLKLDRIGSMSGLGC; CNP derivative D, which disclosed in Am. J. Hum. Gent.(2012), 91(6), 1108-1114)
bone growth effect per dose, continuous vs repeated subcutaneous administration ([5]; 7 days): stronger under continuous subcutaneous administration conditions | Body length (from mouth to end of tail) ([5]; continuous subcutaneous, 0.005 mg/kg/day, 7 days): 215.2 ± 3.5 ^NS mm | Body length (from mouth to end of tail) ([5]; continuous subcutaneous, 0.015 mg/kg/day, 7 days): 213.6 ± 4.4 ^NS mm | Body length (from mouth to end of tail) ([5]; continuous subcutaneous, 0.05 mg/kg/day, 7 days): 212.2 ± 5.2 ^NS mm | Body length (from mouth to end of tail) ([5]; continuous subcutaneous, 0.15 mg/kg/day, 7 days): 220.2 ± 4.3 mm | Body length (from mouth to end of tail) ([5]; continuous subcutaneous, 0.5 mg/kg/day, 7 days): 222.8 ± 3.5 mm | increase in body length (from the mouth to the end of the tail) ([5]; continuous subcutaneous, 7-day, doses of 0.15 mg/kg/day or higher): significant increase | effect on body length ([5]; repeated subcutaneous administration conditions, 7 days): no significant effect | Body length (from mouth to end of tail) ([5]; repeated subcutaneous, 0.005 mg/kg/day, 7 days): 211.8 ± 2.9 ^NS mm | Body length (from mouth to end of tail) ([5]; repeated subcutaneous, 0.015 mg/kg/day, 7 days): 213.2 ± 4.4 ^NS mm | Body length (from mouth to end of tail) ([5]; repeated subcutaneous, 0.05 mg/kg/day, 7 days): 214.4 ± 4.7 ^NS mm | Body length (from mouth to end of tail) ([5]; repeated subcutaneous, 0.15 mg/kg/day, 7 days): 211.3 ± 4.5 ^NS mm | Body length (from mouth to end of tail) ([5]; repeated subcutaneous, 0.5 mg/kg/day, 7 days): 215.2 ± 3.3 ^NS mm

CNP6-22: peptide consisting of the ring structure, amino acid positions 6 to 22 of SEQ ID NO: 1 (CFGLKLDRIGSMSGLGC; disulfide 1-17 (inferred); listed as Homo sapiens)
NPR-B agonistic activity compared with hCNP-22 (NPR-B): almost equivalent to that of hCNP-22

From US20200030414A1, “THERAPEUTIC AGENT FOR SHORT STATURE” (Daiichi Sankyo Company, Limited, priority 2017, published 2020)
